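Cultured in 96-well plates, cells were exposed to test compound for 48 hours across five concentrations. Here, GI50 denotes the concentration required for 50% inhibition of growth. TGI: concentration producing complete growth inhibition.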
Key:
Experiment in all cases: NCI-60 cell line screen, 48 h
786-0 renal = system: 786-0 renal
A498 renal = system: A498 renal
A549 NSCLC = system: A549 NSCLC
ACHN renal = system: ACHN renal
BT-549 breast = system: BT-549 breast
CAKI-1 renal = system: CAKI-1 renal
CCRF-CEM leukemia = system: CCRF-CEM leukemia
COLO 205 colon = system: COLO 205 colon
DU-145 prostate = system: DU-145 prostate
EKVX NSCLC = system: EKVX NSCLC
HCC-2998 colon = system: HCC-2998 colon
HCT-116 colon = system: HCT-116 colon
HCT-15 colon = system: HCT-15 colon
HL-60(TB) leukemia = system: HL-60(TB) leukemia
HOP-62 NSCLC = system: HOP-62 NSCLC
HOP-92 NSCLC = system: HOP-92 NSCLC
HS 578T breast = system: HS 578T breast
HT29 colon = system: HT29 colon
IGROV1 ovarian = system: IGROV1 ovarian
K-562 leukemia = system: K-562 leukemia
KM12 colon = system: KM12 colon
LOX IMVI melanoma = system: LOX IMVI melanoma
M14 melanoma = system: M14 melanoma
MALME-3M melanoma = system: MALME-3M melanoma
MCF7 breast = system: MCF7 breast
MDA-MB-231 breast = system: MDA-MB-231 breast
MDA-MB-435 = system: MDA-MB-435
MOLT-4 leukemia = system: MOLT-4 leukemia
NCI-H226 lung = system: NCI-H226 lung
NCI-H23 lung = system: NCI-H23 lung
NCI-H460 lung = system: NCI-H460 lung
NCI-H522 lung = system: NCI-H522 lung
NCI/ADR-RES ovarian = system: NCI/ADR-RES ovarian
OVCAR-3 ovarian = system: OVCAR-3 ovarian
OVCAR-4 ovarian = system: OVCAR-4 ovarian
OVCAR-5 ovarian = system: OVCAR-5 ovarian
OVCAR-8 ovarian = system: OVCAR-8 ovarian
PC-3 prostate = system: PC-3 prostate
RPMI-8226 leukemia = system: RPMI-8226 leukemia
RXF 393 renal = system: RXF 393 renal
SF-268 CNS = system: SF-268 CNS
SF-295 CNS = system: SF-295 CNS
SF-539 CNS = system: SF-539 CNS
SK-MEL-2 melanoma = system: SK-MEL-2 melanoma
SK-MEL-28 melanoma = system: SK-MEL-28 melanoma
SK-MEL-5 melanoma = system: SK-MEL-5 melanoma
SK-OV-3 ovarian = system: SK-OV-3 ovarian
SN12C renal = system: SN12C renal
SNB-19 CNS = system: SNB-19 CNS
SNB-75 CNS = system: SNB-75 CNS
SR leukemia = system: SR leukemia
SW-620 colon = system: SW-620 colon
T-47D breast = system: T-47D breast
TK-10 renal = system: TK-10 renal
U251 CNS = system: U251 CNS
UACC-257 melanoma = system: UACC-257 melanoma
UACC-62 melanoma = system: UACC-62 melanoma
UO-31 renal = system: UO-31 renal

CNC(=O)c1ccccc1Nc1cc(Nc2ccc(N3CCOCC3)cc2OC)ncc1C(F)(F)F
GI50 (786-0 renal): 4.12 µM
TGI (786-0 renal): 34.6 µM
GI50 (A498 renal): 2.29 µM
TGI (A498 renal): 10.5 µM
GI50 (A549 NSCLC): 1.7 µM
TGI (A549 NSCLC): 22.7 µM
GI50 (ACHN renal): 5.27 µM
TGI (ACHN renal): > 84.5 µM
GI50 (BT-549 breast): 8.14 µM
TGI (BT-549 breast): 41.8 µM
GI50 (CAKI-1 renal): 1.64 µM
TGI (CAKI-1 renal): > 54.6 µM
GI50 (CCRF-CEM leukemia): 8.49 µM
TGI (CCRF-CEM leukemia): 97.8 µM
GI50 (COLO 205 colon): 0.161 µM
TGI (COLO 205 colon): 1.37 µM
GI50 (DU-145 prostate): 3.4 µM
TGI (DU-145 prostate): > 81.5 µM
GI50 (EKVX NSCLC): 0.341 µM
TGI (EKVX NSCLC): 64.8 µM
GI50 (HCC-2998 colon): 1.68 µM
TGI (HCC-2998 colon): 62.4 µM
GI50 (HCT-116 colon): 1.94 µM
TGI (HCT-116 colon): 19.1 µM
GI50 (HCT-15 colon): 3.09 µM
TGI (HCT-15 colon): > 95.7 µM
GI50 (HL-60(TB) leukemia): 1 µM
TGI (HL-60(TB) leukemia): 24.8 µM
GI50 (HOP-62 NSCLC): 0.296 µM
TGI (HOP-62 NSCLC): 52.5 µM
GI50 (HOP-92 NSCLC): 0.011 µM
TGI (HOP-92 NSCLC): 0.172 µM
GI50 (HS 578T breast): 13.5 µM
TGI (HS 578T breast): > 87.6 µM
GI50 (HT29 colon): 0.333 µM
TGI (HT29 colon): 15.4 µM
GI50 (IGROV1 ovarian): 2.28 µM
TGI (IGROV1 ovarian): > 100 µM
GI50 (K-562 leukemia): 5 µM
TGI (K-562 leukemia): > 100 µM
GI50 (KM12 colon): 1.18 µM
TGI (KM12 colon): 11.6 µM
GI50 (LOX IMVI melanoma): 1.45 µM
TGI (LOX IMVI melanoma): 18.5 µM
GI50 (M14 melanoma): 0.739 µM
TGI (M14 melanoma): 32.2 µM
GI50 (MALME-3M melanoma): 0.264 µM
TGI (MALME-3M melanoma): 63.6 µM
GI50 (MCF7 breast): 0.296 µM
TGI (MCF7 breast): 34.5 µM
GI50 (MDA-MB-231 breast): 2.7 µM
TGI (MDA-MB-231 breast): 47.1 µM
GI50 (MDA-MB-435): 0.815 µM
TGI (MDA-MB-435): > 94.3 µM
GI50 (MOLT-4 leukemia): 6.64 µM
TGI (MOLT-4 leukemia): > 86.8 µM
GI50 (NCI-H226 lung): 2.42 µM
TGI (NCI-H226 lung): 55.6 µM
GI50 (NCI-H23 lung): 0.757 µM
TGI (NCI-H23 lung): 60.7 µM
GI50 (NCI-H460 lung): 2.54 µM
TGI (NCI-H460 lung): 19.4 µM
GI50 (NCI-H522 lung): 7.67 µM
TGI (NCI-H522 lung): 37.6 µM
GI50 (NCI/ADR-RES ovarian): 2.82 µM
TGI (NCI/ADR-RES ovarian): > 68.3 µM
GI50 (OVCAR-3 ovarian): 13.1 µM
TGI (OVCAR-3 ovarian): > 85.3 µM
GI50 (OVCAR-4 ovarian): 3.24 µM
TGI (OVCAR-4 ovarian): > 100 µM
GI50 (OVCAR-5 ovarian): 0.637 µM
TGI (OVCAR-5 ovarian): > 100 µM
GI50 (OVCAR-8 ovarian): 6.88 µM
TGI (OVCAR-8 ovarian): > 100 µM
GI50 (PC-3 prostate): 18.6 µM
TGI (PC-3 prostate): > 100 µM
GI50 (RPMI-8226 leukemia): 3.61 µM
TGI (RPMI-8226 leukemia): 48 µM
GI50 (RXF 393 renal): 3.08 µM
TGI (RXF 393 renal): 20 µM
GI50 (SF-268 CNS): 4.86 µM
TGI (SF-268 CNS): 80.9 µM
GI50 (SF-295 CNS): 1.07 µM
TGI (SF-295 CNS): 41.8 µM
GI50 (SF-539 CNS): 6.37 µM
TGI (SF-539 CNS): 34 µM
GI50 (SK-MEL-2 melanoma): 3.82 µM
TGI (SK-MEL-2 melanoma): 24.9 µM
GI50 (SK-MEL-28 melanoma): 1.85 µM
TGI (SK-MEL-28 melanoma): > 83.8 µM
GI50 (SK-MEL-5 melanoma): 4.55 µM
TGI (SK-MEL-5 melanoma): 22.1 µM
GI50 (SK-OV-3 ovarian): 5.44 µM
TGI (SK-OV-3 ovarian): 57.6 µM
GI50 (SN12C renal): 12.2 µM
TGI (SN12C renal): > 81.5 µM
GI50 (SNB-19 CNS): 15.6 µM
TGI (SNB-19 CNS): > 100 µM
GI50 (SNB-75 CNS): 1.31 µM
TGI (SNB-75 CNS): 43.5 µM
GI50 (SR leukemia): 0.248 µM
TGI (SR leukemia): 12.4 µM
GI50 (SW-620 colon): 1.92 µM
TGI (SW-620 colon): > 65.6 µM
GI50 (T-47D breast): 14.5 µM
TGI (T-47D breast): 59.8 µM
GI50 (TK-10 renal): 1.23 µM
TGI (TK-10 renal): 40.2 µM
GI50 (U251 CNS): 10.4 µM
TGI (U251 CNS): > 87.6 µM
GI50 (UACC-257 melanoma): 0.346 µM
TGI (UACC-257 melanoma): 63.7 µM
GI50 (UACC-62 melanoma): 0.419 µM
TGI (UACC-62 melanoma): 20.4 µM
GI50 (UO-31 renal): 1.91 µM
TGI (UO-31 renal): 17.8 µM

O=C(/C=C/c1ccc2ccccc2c1)NCc1ccc(C(=O)NCc2ccccc2)cc1
TGI (786-0 renal): > 100 µM
TGI (A498 renal): > 100 µM
TGI (A549 NSCLC): > 100 µM
TGI (ACHN renal): > 100 µM
TGI (BT-549 breast): > 100 µM
TGI (CAKI-1 renal): > 73.1 µM
TGI (CCRF-CEM leukemia): > 100 µM
TGI (COLO 205 colon): > 100 µM
TGI (DU-145 prostate): > 100 µM
TGI (EKVX NSCLC): > 100 µM
TGI (HCC-2998 colon): > 100 µM
TGI (HCT-116 colon): > 100 µM
TGI (HCT-15 colon): > 100 µM
TGI (HL-60(TB) leukemia): 38.8 µM
TGI (HOP-62 NSCLC): 52.9 µM
TGI (HOP-92 NSCLC): > 100 µM
TGI (HS 578T breast): > 100 µM
TGI (HT29 colon): > 100 µM
TGI (IGROV1 ovarian): > 100 µM
TGI (K-562 leukemia): > 31.6 µM
TGI (KM12 colon): > 100 µM
TGI (LOX IMVI melanoma): > 100 µM
TGI (M14 melanoma): > 100 µM
TGI (MALME-3M melanoma): > 100 µM
TGI (MCF7 breast): > 100 µM
TGI (MDA-MB-231 breast): > 100 µM
TGI (MDA-MB-435): > 100 µM
TGI (MOLT-4 leukemia): > 100 µM
TGI (NCI-H226 lung): 86.8 µM
TGI (NCI-H23 lung): > 100 µM
TGI (NCI-H460 lung): > 100 µM
TGI (NCI-H522 lung): > 100 µM
TGI (NCI/ADR-RES ovarian): > 100 µM
TGI (OVCAR-3 ovarian): > 100 µM
TGI (OVCAR-4 ovarian): > 100 µM
TGI (OVCAR-5 ovarian): > 100 µM
TGI (OVCAR-8 ovarian): > 100 µM
TGI (PC-3 prostate): > 100 µM
TGI (RPMI-8226 leukemia): > 100 µM
TGI (RXF 393 renal): > 100 µM
TGI (SF-268 CNS): > 100 µM
TGI (SF-295 CNS): > 100 µM
TGI (SF-539 CNS): > 100 µM
TGI (SK-MEL-2 melanoma): > 100 µM
TGI (SK-MEL-28 melanoma): > 100 µM
TGI (SK-MEL-5 melanoma): > 100 µM
TGI (SK-OV-3 ovarian): > 100 µM
TGI (SN12C renal): > 100 µM
TGI (SNB-19 CNS): > 100 µM
TGI (SNB-75 CNS): 71.1 µM
TGI (SR leukemia): > 100 µM
TGI (SW-620 colon): > 100 µM
TGI (T-47D breast): > 89.6 µM
TGI (TK-10 renal): > 100 µM
TGI (U251 CNS): > 100 µM
TGI (UACC-257 melanoma): > 100 µM
TGI (UACC-62 melanoma): > 100 µM
TGI (UO-31 renal): > 100 µM
